# Experimental data as given in ChEMBL document CHEMBL4321788, “Rational Design of Multitarget-Directed Ligands: Strategies and Emerging Paradigms” (J Med Chem, 2019).
# Key:
# [1] = target: Lipoxygenase (Glycine max, UniProt Q39829); assay: Inhibition of soya bean LOX assessed as reduction in formation of 13-hydroperoxylinoleic acid using sodium linoleate as substrate
# [2] = tested on: Rattus norvegicus; assay: Antinociceptive activity in Wistar rat model of acetic-acid induced nociception pain assessed as reduction in writhes by measuring reduction in hind limb extension at 0.01 mmol/0.1kg, ip pretreated for 30 min followed by acetic-acid treatment and measured every 5 mins for 30 mins relative to control; type: functional; design: scale not given: the % may be the effect or the level left
# [3] = target: Substance-P receptor (Homo sapiens, UniProt P25103); assay: Displacement of [3H]Sar SP from human NK1 receptor expressed in CHO cells membranes; type: cell membranes
# Sequence of Substance-P receptor (P25103 whole entry): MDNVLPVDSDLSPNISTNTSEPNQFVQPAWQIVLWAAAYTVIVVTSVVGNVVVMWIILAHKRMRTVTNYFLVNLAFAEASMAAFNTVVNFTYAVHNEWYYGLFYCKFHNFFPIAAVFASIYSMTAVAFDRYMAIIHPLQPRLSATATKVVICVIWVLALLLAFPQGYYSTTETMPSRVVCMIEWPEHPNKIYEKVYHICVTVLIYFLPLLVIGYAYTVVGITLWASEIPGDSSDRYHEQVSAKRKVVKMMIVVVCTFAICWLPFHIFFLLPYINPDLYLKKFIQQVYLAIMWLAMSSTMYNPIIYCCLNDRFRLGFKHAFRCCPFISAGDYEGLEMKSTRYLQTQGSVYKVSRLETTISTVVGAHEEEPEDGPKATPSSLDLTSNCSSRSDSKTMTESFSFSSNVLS
# [4] = target: T1, Substance-K receptor (Homo sapiens, UniProt P21452); assay: Displacement of [3H]NKA from human NK2 receptor expressed in CHO cells membranes; type: cell membranes
# T1 sequence (P21452 whole entry): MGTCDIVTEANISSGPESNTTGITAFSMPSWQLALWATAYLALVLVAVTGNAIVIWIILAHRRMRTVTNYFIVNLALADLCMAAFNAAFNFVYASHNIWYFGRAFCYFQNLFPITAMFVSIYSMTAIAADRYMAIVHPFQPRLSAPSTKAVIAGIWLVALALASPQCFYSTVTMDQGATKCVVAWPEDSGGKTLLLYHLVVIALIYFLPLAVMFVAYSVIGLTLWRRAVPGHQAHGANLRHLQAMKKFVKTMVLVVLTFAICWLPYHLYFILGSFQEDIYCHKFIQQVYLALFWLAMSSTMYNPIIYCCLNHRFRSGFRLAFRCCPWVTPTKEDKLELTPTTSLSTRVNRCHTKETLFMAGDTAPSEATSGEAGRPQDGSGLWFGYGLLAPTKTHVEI
# [5] = target: T2, Neuromedin-K receptor (Homo sapiens, UniProt P29371); assay: Displacement of [125I][MePhe]NKB from human NK3 receptor expressed in CHO cells membranes; type: cell membranes
# T2 sequence (P29371 whole entry): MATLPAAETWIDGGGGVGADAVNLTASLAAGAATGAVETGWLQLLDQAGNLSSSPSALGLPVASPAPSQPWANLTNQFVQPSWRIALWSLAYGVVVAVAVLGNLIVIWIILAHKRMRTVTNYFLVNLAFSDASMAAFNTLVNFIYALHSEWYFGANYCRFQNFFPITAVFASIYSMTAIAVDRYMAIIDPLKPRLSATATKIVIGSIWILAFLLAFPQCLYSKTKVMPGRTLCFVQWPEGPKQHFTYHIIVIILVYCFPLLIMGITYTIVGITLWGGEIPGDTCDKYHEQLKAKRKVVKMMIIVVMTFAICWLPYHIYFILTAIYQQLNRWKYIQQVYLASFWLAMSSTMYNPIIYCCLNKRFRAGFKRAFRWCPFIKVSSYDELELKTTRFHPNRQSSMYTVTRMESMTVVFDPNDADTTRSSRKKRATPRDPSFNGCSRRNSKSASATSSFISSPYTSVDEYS
# [6] = Inhibition of ROS generation in human MC65 cells assessed as reduction in tetracycline removal-induced ROS level incubated for 48 hrs by DCFH-DA staining based flow cytometric analysis; type: functional, cell-based; settings: MC65, 48 h
# [7] = Neuroprotective activity against tetracycline removal-induced cytotoxicity in human MC65 cells assessed as increase in cell viability incubated for 72 hrs by MTT assay; type: functional, cell-based; settings: MC65, 72 h
# [8] = target: Histamine H2 receptor (Cavia porcellus) (UniProt P47747); assay: Binding affinity to histamine H2 receptor in guinea pig right atrium
# Sequence of Histamine H2 receptor (Cavia porcellus) (P47747 whole entry): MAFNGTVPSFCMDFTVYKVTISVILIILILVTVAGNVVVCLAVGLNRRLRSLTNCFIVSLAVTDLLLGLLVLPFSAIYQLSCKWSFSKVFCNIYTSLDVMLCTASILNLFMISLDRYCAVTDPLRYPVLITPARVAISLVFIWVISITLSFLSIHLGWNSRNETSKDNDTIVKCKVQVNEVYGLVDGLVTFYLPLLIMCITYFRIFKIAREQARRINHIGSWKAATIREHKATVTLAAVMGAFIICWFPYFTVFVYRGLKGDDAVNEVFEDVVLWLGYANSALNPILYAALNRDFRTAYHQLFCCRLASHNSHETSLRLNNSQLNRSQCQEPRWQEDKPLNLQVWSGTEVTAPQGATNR
# [9] = target: Histamine H1 receptor (Cavia porcellus) (UniProt P31389); assay: Binding affinity to histamine H1 receptor in guinea pig ileum incubated up to 20 mins; type: tissue-based
# Sequence of Histamine H1 receptor (Cavia porcellus) (P31389 whole entry): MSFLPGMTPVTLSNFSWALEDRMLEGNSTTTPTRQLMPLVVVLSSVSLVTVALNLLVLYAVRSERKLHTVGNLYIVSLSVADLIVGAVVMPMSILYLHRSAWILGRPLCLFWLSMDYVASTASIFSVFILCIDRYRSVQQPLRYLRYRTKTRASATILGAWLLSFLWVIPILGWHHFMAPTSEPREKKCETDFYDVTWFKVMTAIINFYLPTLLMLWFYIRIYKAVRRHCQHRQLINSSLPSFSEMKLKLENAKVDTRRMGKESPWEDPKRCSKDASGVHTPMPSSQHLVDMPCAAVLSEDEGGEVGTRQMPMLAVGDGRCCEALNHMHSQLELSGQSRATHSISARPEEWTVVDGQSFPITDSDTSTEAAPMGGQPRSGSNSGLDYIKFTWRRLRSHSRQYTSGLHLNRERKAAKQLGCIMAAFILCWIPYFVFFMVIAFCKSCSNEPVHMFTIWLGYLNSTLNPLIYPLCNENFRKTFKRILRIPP
# [10] = target: Sodium-dependent serotonin transporter (Rattus norvegicus, UniProt P31652); assay: Inhibition of rat synaptosome SERT
# Sequence of Sodium-dependent serotonin transporter (P31652 whole entry): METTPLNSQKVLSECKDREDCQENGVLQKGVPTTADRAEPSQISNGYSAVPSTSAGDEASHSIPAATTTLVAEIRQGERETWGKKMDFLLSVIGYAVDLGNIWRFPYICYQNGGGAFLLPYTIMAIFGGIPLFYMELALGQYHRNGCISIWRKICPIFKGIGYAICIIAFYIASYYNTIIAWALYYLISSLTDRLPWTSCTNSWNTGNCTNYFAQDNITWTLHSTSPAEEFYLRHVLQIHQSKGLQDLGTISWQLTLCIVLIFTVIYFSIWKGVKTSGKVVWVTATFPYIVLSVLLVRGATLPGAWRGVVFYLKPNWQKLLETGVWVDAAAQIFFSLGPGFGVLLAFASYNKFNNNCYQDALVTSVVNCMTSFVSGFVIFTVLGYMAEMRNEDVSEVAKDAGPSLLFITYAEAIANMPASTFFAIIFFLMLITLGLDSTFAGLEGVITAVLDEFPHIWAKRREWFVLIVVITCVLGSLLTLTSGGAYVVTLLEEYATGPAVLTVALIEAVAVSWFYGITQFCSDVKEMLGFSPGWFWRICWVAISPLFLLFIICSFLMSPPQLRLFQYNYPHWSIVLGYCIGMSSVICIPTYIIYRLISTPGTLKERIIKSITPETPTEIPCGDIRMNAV
# [11] = target: Histamine H3 receptor (Homo sapiens, UniProt Q9Y5N1); assay: Antagonist activity at human histamine H3 receptor stably expressed in HEK293 cells assessed as cAMP accumulation incubated for 60 mins by Eu-cAMP tracer based TR-FRET assay; type: functional, cell-based
# Sequence of Histamine H3 receptor (Q9Y5N1 whole entry): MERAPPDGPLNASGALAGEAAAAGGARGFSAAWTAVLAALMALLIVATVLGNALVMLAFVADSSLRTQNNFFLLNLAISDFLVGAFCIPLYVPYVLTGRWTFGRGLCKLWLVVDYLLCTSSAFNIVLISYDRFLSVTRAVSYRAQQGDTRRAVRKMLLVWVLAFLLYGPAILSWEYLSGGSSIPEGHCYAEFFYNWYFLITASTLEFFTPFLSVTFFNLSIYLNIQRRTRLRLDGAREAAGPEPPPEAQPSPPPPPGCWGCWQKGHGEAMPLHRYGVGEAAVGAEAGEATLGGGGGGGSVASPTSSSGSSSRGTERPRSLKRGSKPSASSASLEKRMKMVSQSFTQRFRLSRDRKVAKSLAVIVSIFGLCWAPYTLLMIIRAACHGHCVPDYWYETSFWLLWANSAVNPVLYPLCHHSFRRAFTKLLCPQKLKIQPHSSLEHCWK
# [12] = target: Amyloid-beta precursor protein (Homo sapiens, UniProt P05067); assay: Inhibition of self-induced aggregation of amyloid beta (1 to 42) (unknown origin) incubated for 24 hrs by TEM analysis
# Sequence of Amyloid-beta precursor protein (P05067 whole entry): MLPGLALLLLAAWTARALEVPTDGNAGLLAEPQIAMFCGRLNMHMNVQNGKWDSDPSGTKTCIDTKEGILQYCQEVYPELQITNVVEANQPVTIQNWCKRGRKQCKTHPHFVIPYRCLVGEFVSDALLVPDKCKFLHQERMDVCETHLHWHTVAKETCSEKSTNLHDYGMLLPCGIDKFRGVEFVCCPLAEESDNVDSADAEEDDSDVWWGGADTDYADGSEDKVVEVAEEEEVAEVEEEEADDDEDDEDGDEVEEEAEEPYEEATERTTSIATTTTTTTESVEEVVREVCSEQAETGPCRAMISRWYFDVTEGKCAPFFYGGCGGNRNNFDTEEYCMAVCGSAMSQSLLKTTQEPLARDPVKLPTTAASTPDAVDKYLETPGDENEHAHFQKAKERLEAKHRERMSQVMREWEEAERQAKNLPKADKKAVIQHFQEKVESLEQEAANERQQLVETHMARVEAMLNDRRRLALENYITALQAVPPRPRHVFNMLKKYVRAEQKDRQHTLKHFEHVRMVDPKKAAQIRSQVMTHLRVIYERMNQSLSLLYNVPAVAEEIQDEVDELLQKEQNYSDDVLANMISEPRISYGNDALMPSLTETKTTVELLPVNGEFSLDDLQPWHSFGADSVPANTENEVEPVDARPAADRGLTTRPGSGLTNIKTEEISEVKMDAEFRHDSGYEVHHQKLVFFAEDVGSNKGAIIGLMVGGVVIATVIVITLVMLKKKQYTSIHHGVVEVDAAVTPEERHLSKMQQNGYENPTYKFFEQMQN
# [13] = target: T3, Acetylcholinesterase (Mus musculus, UniProt P21836); assay: Inhibition of mouse brain AChE
# T3 sequence (P21836 whole entry): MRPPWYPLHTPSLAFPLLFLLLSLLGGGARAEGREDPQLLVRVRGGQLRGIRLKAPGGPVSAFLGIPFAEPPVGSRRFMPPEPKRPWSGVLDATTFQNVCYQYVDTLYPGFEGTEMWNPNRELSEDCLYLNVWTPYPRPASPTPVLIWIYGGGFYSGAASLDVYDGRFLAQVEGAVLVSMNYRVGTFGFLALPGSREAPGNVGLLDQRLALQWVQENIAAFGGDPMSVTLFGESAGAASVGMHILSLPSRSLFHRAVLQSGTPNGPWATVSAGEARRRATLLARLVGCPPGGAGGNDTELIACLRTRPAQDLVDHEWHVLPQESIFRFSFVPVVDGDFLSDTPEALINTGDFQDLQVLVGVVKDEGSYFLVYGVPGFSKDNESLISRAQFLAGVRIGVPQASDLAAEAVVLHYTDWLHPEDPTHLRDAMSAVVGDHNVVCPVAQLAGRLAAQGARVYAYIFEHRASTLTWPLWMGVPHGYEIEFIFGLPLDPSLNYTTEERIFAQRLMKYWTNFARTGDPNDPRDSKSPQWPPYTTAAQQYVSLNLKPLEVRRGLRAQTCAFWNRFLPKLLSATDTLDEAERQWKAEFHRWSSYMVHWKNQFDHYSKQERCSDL
# [14] = species: Homo sapiens; assay: Antioxidant activity in human M17 cell lysate assessed as trolox equivalents of ABTS radical scavenging activity incubated up to 10 mins; type: functional, subcellular
structure (smiles),measurement,setting,value
CC(=O)Nc1cccc(OC(=O)/C=C/c2cccc(Oc3ccccc3)c2)c1,IC50,[1],340 nM
same,Activity,[2],91 - 98.1%
CC(=O)Nc1ccc(O)cc1 [ACETAMINOPHEN],Activity,[2],66%
CNC(=O)C[C@H]1CCCN(C2CCN(CC[C@@H](/C(CN(C)C(=O)c3cc(Cl)cc(Cl)c3)=N/OC)c3ccc(Cl)c(Cl)c3)CC2)C1,Ki,[3],1.3 nM
same,Ki,[4],0.4 nM
same,Ki,[5],0.3 nM
COc1ccc2[nH]cc(CCNC(=O)CC(=O)CCc3ccc(O)cc3)c2c1,IC50,[6],68 nM
same,EC50,[7],27.6 nM
COc1ccc(CN(CCN(C)CCCCCCN/C(=N/C#N)NCCCOc2cccc(CN3CCCCC3)c2)c2ccccn2)cc1,pKb,[8],6.43
same,pKb,[9],8.42
CCN(C)C(=O)Oc1cccc([C@H](C)N(C)C)c1 [RIVASTIGMINE],IC50,[10],> 1000 nM
CCN(CC)CCCOc1ccc(-n2ccc(=O)c(O)c2C)cc1,IC50,[11],12.8 nM
same,IC50,[12],17200 nM
O=C(O)/C=C/c1cccc(Oc2ccccc2)c1,IC50,[1],89000 nM
CNCCC(Oc1ccc(C(F)(F)F)cc1)c1ccccc1 (stereo not drawn) [FLUOXETINE],IC50,[13],> 10000 nM
CN(CCCNC(=O)NCCCOc1ccc(CN2CCCCC2)cc1)CCC(c1ccc(F)cc1)c1ccccn1 (stereo not drawn),pKb,[8],6.68
Cc1c(C)c2c(c(C)c1O)CCC(C)(C(=O)O)O2 (stereo not drawn),Activity,[14],1
CN(C)c1ccc(O)c(CNc2cccc3ccc(CO)nc23)c1,Activity,[14],1.41
